Results from patent US20140081025A1, “HETEROAROMATIC RING DERIVATIVE” (TAISHO PHARMACEUTICAL CO., LTD., priority 2011, published 2014).

Experiments:
[1] = target: T1, human orexin 1 receptor (hOX1R) (Homo sapiens, UniProt O43613); assay: Measurement of orexin antagonist activity (intracellular Ca2+ fluorescence, FDSS) in CHO cells expressing hOX1R; format: cell-based; details: CHO cells forcibly expressing hOX1R; ligand (two-amino-acid-substituted human orexin-A) 300 pM; Fluo 4-AM; read-out: IC50 value OX1
T1 construct: expressed in transfected cells; host or cells: Chinese hamster ovary (CHO) cells
T1 sequence (O43613 1-425): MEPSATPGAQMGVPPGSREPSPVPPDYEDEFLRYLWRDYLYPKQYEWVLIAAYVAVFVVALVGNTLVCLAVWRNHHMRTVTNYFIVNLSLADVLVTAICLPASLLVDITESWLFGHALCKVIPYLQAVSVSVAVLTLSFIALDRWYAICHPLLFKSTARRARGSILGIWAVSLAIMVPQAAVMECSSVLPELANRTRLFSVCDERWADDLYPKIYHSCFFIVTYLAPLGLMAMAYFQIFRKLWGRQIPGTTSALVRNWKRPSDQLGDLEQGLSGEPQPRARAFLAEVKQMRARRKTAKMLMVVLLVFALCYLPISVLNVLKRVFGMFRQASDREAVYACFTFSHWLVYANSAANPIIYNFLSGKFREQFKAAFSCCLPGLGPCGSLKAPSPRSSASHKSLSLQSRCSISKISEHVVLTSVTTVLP
Description: (§1) The antagonist activity of a test compound against the human orexin 1 receptor (hOX1R) or orexin 2 receptor (hOX2R) was measured by the method described in the document (Toshikatsu Okumura et al., Biochemical and Biophysical Research Communications, 280, 976-981, 2001) with appropriate modification. Chinese hamster ovary (CHO) cells forcibly expressing hOX1R or hOX2R were seeded into each well of a 96-well Black clear bottom plate (Nunc A/S) in the amount of 20000 cells per well and were cultured in a Ham's F-12 medium (Invitrogen, Inc.) containing 0.1 mM MEM non-essential amino acids (Invitrogen, Inc.), 0.5 mg/mL G418 (Invitrogen, Inc.), and 10% fetal calf serum (Invitrogen, Inc.) at 37° C. in 5% CO2 for 16 hours. The medium was removed, and then added to each well was 100 μL of an assay buffer (pH 7.4) containing 0.5 μM Fluo 4-AM ester (Dojindo Laboratories), wherein the buffer was composed of 25 mM HEPES (Dojindo Laboratories), a Hanks' balanced salt solution (Invitrogen, Inc.), 0.1% bovine serum albumin (Sigma-Aldrich Co., LLC.), 2.5 mM probenecid (Sigma-Aldrich Co., LLC.), and 200 μg/mL Amaranth (Sigma-Aldrich Co., LLC.), followed by incubation at 37° C. in 5% CO2 for 60 min. The assay buffer containing Fluo 4-AM ester was removed, and then 150 μL of an assay buffer solution containing 10 mM of the test compound dissolved in dimethyl sulfoxide was added to each well, followed by incubation for 30 min.
(§2) A peptide (Pyr-[…]NH2: Peptide Institute, Inc.), which is a ligand having substitution of two amino acids in human orexin-A, was diluted with an assay buffer to a final concentration of 300 pM for hOX1R and to a final concentration of 3 nM for hOX2R. The reaction was started by adding 50 μL of this ligand solution to each well. The reaction was monitored by measuring the fluorescence of each well at each 1 second for 3 min with a Functional Drug Screening System (FDSS manufactured by Hamamatsu Photonics K.K.), and the antagonist activity was determined based on the maximum fluorescence value as an index of the intracellular Ca^2+ concentration. The antagonist activity of a test compound was calculated by assuming that the fluorescence value of the well containing only a dilution buffer was 100% and that the fluorescence value of the well containing a buffer not containing the ligand or any test compound was 0%. The 50% inhibitory concentration (IC50 value) of a test compound was determined from fluorescence values at various concentrations of the test compound.

[2] = target: T2, human orexin 2 receptor (hOX2R) (Homo sapiens, UniProt O43614); assay: Measurement of orexin antagonist activity (intracellular Ca2+ fluorescence, FDSS) in CHO cells expressing hOX2R; format: cell-based; details: CHO cells forcibly expressing hOX2R; ligand (two-amino-acid-substituted human orexin-A) 3 nM; Fluo 4-AM; read-out: IC50 value OX2
T2 construct: expressed in transfected cells; host or cells: Chinese hamster ovary (CHO) cells
T2 sequence (O43614 1-444): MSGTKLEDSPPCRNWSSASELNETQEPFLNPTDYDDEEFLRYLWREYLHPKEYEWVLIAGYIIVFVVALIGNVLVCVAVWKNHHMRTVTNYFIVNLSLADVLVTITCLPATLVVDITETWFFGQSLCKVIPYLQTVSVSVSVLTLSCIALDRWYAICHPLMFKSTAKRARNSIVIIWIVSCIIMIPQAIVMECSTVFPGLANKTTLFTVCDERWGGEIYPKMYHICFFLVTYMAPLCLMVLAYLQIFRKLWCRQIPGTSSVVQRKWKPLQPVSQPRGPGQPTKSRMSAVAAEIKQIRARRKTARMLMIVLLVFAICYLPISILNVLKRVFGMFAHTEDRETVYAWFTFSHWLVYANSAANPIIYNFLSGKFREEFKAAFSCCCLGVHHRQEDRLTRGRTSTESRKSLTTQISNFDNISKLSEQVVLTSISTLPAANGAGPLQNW
Description: as §1, §2

| Structure (SMILES) | IC50 [1] [nM] | IC50 [2] [nM] |
| --- | --- | --- |
| CCN(CCc1noc(-c2ccc(F)c(F)c2)n1)C(=O)c1ccccc1-n1nccn1 [Example 42, N-ethyl-N-{2-[5-(3,4-difluorophenyl)-1,2,4-oxadiazol-3-yl]ethyl}-2-(2H-1,2,3-triazol-2-yl) benzamide] | 9.7 | 10.8 |
| CN(CCc1noc(-c2ccc(F)cc2)n1)C(=O)c1ccccc1-n1nccn1 [Example 31, N-{2-[5-(4-Fluorophenyl)1,2,4-oxadiazol-3-yl]ethyl}-N-methyl-2-(2H-1,2,3-triazol-2-yl)benzamide] | 11.6 | 114 |
| Cc1ccc(-n2nccn2)c(C(=O)N(C)CCc2cc(-c3ccc(F)cn3)on2)c1 [Example 9, N-{2-[5-(5-Fluoropyridin-2-yl)-1,2-oxazol-3-yl]ethyl}-N,5-dimethyl-2-(2H-1,2,3-triazol-2-yl)benzamide] | 16.7 | 77.4 |
| CCN(CCc1ccn(-c2cc(C(F)(F)F)ccn2)n1)C(=O)c1ccccc1-n1nccn1 [Example 26, N-ethyl-2-(2H-1,2,3-triazol-2-yl)-N-{2-{1-[4-(trifluoromethyl)pyridin-2-yl]-1H-pyrazol-3-yl}ethyl}benzamide] | 61.1 | 380 |
| CN(CCc1noc(-c2ccc(F)cn2)n1)C(=O)c1ccccc1-n1nccn1 [Example 33, N-{2-[5-(5-fluoropyridin-2-yl)-1,2,4-oxadiazol-3-yl]ethyl}-N-methyl-2-(2H-1,2,3-triazol-2-yl) benzamide] | 1190 | 2530 |
| Cc1ccc(-n2nccn2)c(C(=O)N(C)CCc2noc(-c3ccc(F)c(F)c3)n2)c1 [Example 36] | 1.9 | 5.9 |
| CCN(CCc1noc(-c2ccc(F)cc2)n1)C(=O)c1cc(F)ccc1-c1ncccn1 [Example 40, N-ethyl-5-fluoro-N-{2-[5-(4-fluorophenyl)-1,2,4-oxadiazol-3-yl]ethyl}-2-(pyrimidin-2-yl) benzamide] | 1.7 | 78 |
| CN(CCc1ccn(-c2ccc(F)cn2)n1)C(=O)c1cc(F)ccc1-n1nccn1 [Example 15, 5-Fluoro-N-{2-[1-(5-fluoropyridin-2-yl)-1H-pyrazol-3-yl]ethyl}-N-methyl-2-(2H-1,2,3-triazol-2-yl)benzamide] | 14.6 | 191 |
| CCN(CCc1noc(-c2ccc(F)cc2)n1)C(=O)c1ccccc1-n1nccn1 [Example 41, N-ethyl-N-{2-[5-(4-fluorophenyl)-1,2,4-oxadiazol-3-yl]ethyl}-2-(2H-1,2,3-triazol-2-yl) benzamide] | 1.6 | 31.6 |
| CCN(CCc1ccn(-c2cccc(C)n2)n1)C(=O)c1cc(F)ccc1-c1ncccn1 [Example 28, N-ethyl-5-fluoro-N-{2-[1-(6-methylpyridin-2-yl)-1H-pyrazol-3-yl]ethyl}-2-(pyrimidin-2-yl) benzamide] | 8.1 | 81.1 |
| CCN(CCc1ccn(-c2ccc(F)cc2)n1)C(=O)c1cc(F)ccc1-c1ncccn1 [Example 27, N-ethyl-5-fluoro-N-{2-[1-(4-fluorophenyl)-1H-pyrazol-3-yl]ethyl}-2-(pyrimidin-2-yl) benzamide] | 1.1 | 18.4 |
| CCN(CCc1ccn(-c2ccc(F)cn2)n1)C(=O)c1c(F)cccc1-c1ncccn1 [Example 21, N-ethyl-2-fluoro-N-{2-[1-(5-fluoropyridin-2-yl)-1H-pyrazol-3-yl]ethyl}-6-(pyrimidin-2-yl) benzamide] | 11.6 | 50.8 |
| CCN(CCc1ccn(-c2ccc(F)c(F)c2)n1)C(=O)c1cc(F)ccc1-c1ncccn1 [Example 29, N-{2-[1-(3,4-difluorophenyl)-1H-pyrazol-3-yl]ethyl}-N-ethyl-5-fluoro-2-(pyrimidin-2-yl) benzamide] | 1.3 | 11.2 |
| CCN(CCc1ccn(-c2ccc(F)cc2)n1)C(=O)c1ccccc1-c1ncccn1 [Example 30, N-ethyl-N-{2-[1-(4-fluorophenyl)-1H-pyrazol-3-yl]ethyl}-2-(pyrimidine-2-yl)benzamide] | 1.9 | 13.2 |
| CCN(CCc1noc(-c2ccc(F)cn2)n1)C(=O)c1cc(F)ccc1-c1ncccn1 [Example 46, N-ethyl-5-fluoro-N-{2-[5-(5-fluoropyridin-2-yl)-1,2,4-oxadiazol-3-yl]ethyl}-2-(pyrimidin-2-yl) benzamide] | 974 | 1230 |
| Cc1ccc(-n2nccn2)c(C(=O)N(C)CCc2ccn(-c3ccc(F)cn3)n2)c1 [Example 5, N-{2-[1-(5-Fluoropyridin-2-yl)-1H-pyrazol-3-yl]ethyl}-N,5-dimethyl-2-(2H-1,2,3-triazol-2-yl)benzamide] | 2.1 | 8 |
| CCN(CCc1ccn(-c2ccc(F)cn2)n1)C(=O)c1cc(C)ccc1-n1nccn1 [Example 8, N-Ethyl-N-{2-[1-(5-fluoropyridin-2-yl)-1H-pyrazol-3-yl]ethyl}-5-methyl-2-(2H-1,2,3-triazol-2-yl)benzamide] | 1.8 | 3.8 |
| CCN(CCc1noc(-c2ccc(F)cc2)n1)C(=O)c1cc(C)ccc1-n1nccn1 [Example 38, N-Ethyl-N-{2-[5-(4-fluorophenyl)-1,2,4-oxadiazol-3-yl]ethyl}-5-methyl-2-(2H-1,2,3-triazol-2-yl)benzamide] | 1.2 | 6.1 |
| CN(CCc1ccn(-c2ccc(F)cn2)n1)C(=O)c1cc(Cl)ccc1-n1nccn1 [Example 16, 5-Chloro-N-{2-[1-(5-fluoropyridin-2-yl)-1H-pyrazol-3-yl]ethyl}-N-methyl-2-(2H-1,2,3-triazol-2-yl)benzamide] | 3.3 | 30.5 |
| CCN(CCc1noc(-c2ccc(F)cn2)n1)C(=O)c1cc(C)ccc1-n1nccn1 [Example 12, N-Ethyl-N-{2-[5-(5-fluoropyridin-2-yl)-1,2,4-oxadiazol-3-yl]ethyl}-5-methyl-2-(2H-1,2,3-triazol-2-yl)benzamide] | 1.9 | 11.6 |
| CCN(CCc1ccn(-c2ccc(F)cc2)n1)C(=O)c1ccccc1-n1nccn1 [Example 22, N-Ethyl-N-{2-[1-(4-fluorophenyl)-1H-pyrazol-3-yl]ethyl}-2-(2H-1,2,3-triazol-2-yl)benzamide] | 2.2 | 10.6 |
| CCN(CCc1cc(-c2ccc(F)cn2)on1)C(=O)c1cc(C)ccc1-n1nccn1 [Example 10, N-Ethyl-N-{2-[5-(5-fluoropyridin-2-yl)-1,2-oxazol-3-yl]ethyl}-5-methyl-2-(2H-1,2,3-triazol-2-yl)benzamide] | 1.8 | 21.3 |
| CCN(CCc1cnn(-c2ccc(F)cn2)c1)C(=O)c1cc(C)ccc1-n1nccn1 [Example 1, N-Ethyl-N-{2-[1-(5-fluoropyridin-2-yl)-1H-pyrazol-4-yl]ethyl}-5-methyl-2-(2H-1,2,3-triazol-2-yl)benzamide] | 1.8 | 5.2 |
